Consider 1 substance from patent publication US20100249064A1, “METHODS AND COMPOSITIONS FOR TREATING DISEASES AND CONDITIONS INVOLVING HIGHER MOLECULAR WEIGHT HYALURONAN” (University of Chicago, priority 2007, published 2010).

The assay deals with CD44. The assay can be described thus: CD44 expression in mouse lung homogenates (immunoblot). Type of assay: in vivo. On the procedure:
Animal Preparation and Treatment. Male C57BL/6J, B6129N2, CD44^−/− or caveolin-1^−/− mice (8-10 weeks, Jackson Laboratories, Bar Harbor, Me.) were anesthetized with intraperitoneal ketamine (150 mg/kg) and acetylpromazine (15 mg/kg) before exposure of the right internal jugular vein via neck incision. LPS (2.5 mg/kg) or water (control) were instilled intratracheally. Four hours later, mice receive high MW HA (1.5 mg/kg) or water control through the internal jugular vein. The animals were allowed to recover for 24 hours after LPS before bronchioalveolar lavage protein and cytokine concentration and/or lung immunohistochemistry/immunoblot analysis (Peng et al., 2004).
Immunoblot analysis of CD44 and Caveolin-1 expression in control, LPS- and HA-treated mouse lung homogenates. CD44 is highly likely to be important in lung disease as CD44−/− mice develop lung fibrosis, inflammatory cell recruitment and accumulation of hyaluronan fragments at sites of lung injury (Teder et al., 2002). […] Caveolin-1 can be differentially regulated in various models of acute lung injury (ALI). Monocrotaline-induced rodent pulmonary hypertension results in a loss of lung EC caveolin-1 expression (Mathew et al., 2004). In contrast, there is no change in pulmonary caveolin-1 expression in lipopolyscaaharide (LPS)-induced sepsis with lung injury (Garrean et al., 2006). […]
(A western blot detects proteins with antibodies after separation by electrophoresis.)

Turning to hyaluronan [HMW-HA], for the setting “C57BL/6J mice, LPS challenged followed by HMW-HA”, the “LPS-induced CD44 upregulation in mouse lungs” value is “inhibited LPS-induced CD44 upregulation”. The “CD44 expression in mouse lungs” value (HMW-HA alone) was “no effect on CD44 expression”.
